Ends that are not written are not given here.
Test system: Male SD rats
Test: Measurement of food intake after intravenous administration
Format: in vivo
Settings: test conditions not stated for this peptide
Method: Male SD rats (Sprague-Dawley, body weight of 275±25 g) were housed and fed in 45×23×15-cm APECR cages, five rats per cage. The rats were acclimated for 1 week or more on a 12-h light/12-h dark cycle at a room temperature of 22 to 24° C. and a humidity of 60 to 80% with free access to food and water before the test. The rats used for the test were fasted for 12 hours overnight before initiation of the test. After fasting, the samples to be tested as the food intake regulator were dissolved in saline and the dissolved test samples were intravenously given (150 μg/body) to the rats, respectively, in the treatment group and, then, their food intakes were measured 1, 2, 4, and […] administration. In contrast, in the control group, saline was intravenously given and their food intakes were measured in the same way.

GRVYRPCWQV [SEQ ID NO: 34]
food intake regulation activity: no food intake regulation activity

From patent publication US8283311B2, “Peptide-containing food intake regulator” (Maruha Nichiro Foods, Inc., priority 2008, dated 2012)
